From patent US9617276B2, “Compounds and methods for treating AIDS and HIV infections” (priority 2009, dated 2017)

Key:
HIV-1NL4-3 = test: in vitro selection of PI-resistant HIV-1 variants in MT-4 cells; type: cell-based; conditions: HIV-1NL4-3 in MT-4 cells, increasing drug concentrations
Text: The culture supernatants were harvested on day 7 and used to infect fresh MT-4 cells for the next round of culture in the presence of increasing concentrations of each drug.

HIV-1 protease = biological target: T1, HIV-1 protease (Human immunodeficiency virus type 1 group M subtype B, UniProt P04585); test: HIV protease enzyme inhibition, fluorometric assay of Toth and Marshall; type: biochemical; conditions: Ki
T1 construct: A simple, continuous fluorometric assay for HIV protease
Protocol: The inhibitory potencies of acyclic and cyclic inhibitors were measured by the assay protocol of Toth and Marshall (Toth, M. V.; Marshall, G. R. A simple, continuous fluorometric assay for HIV protease. Int. J. Pep. Protien Res. 1990, 36, 544-55).

MT-2 cells = test: cytotoxicity CC50; type: cell-based, Human; conditions: MT-2 cells

How did the “passage by which HIV-1 variants replicating in the presence of 1 μM drug emerged” value (HIV-1NL4-3) turn out when COc1ccc2c(c1)OCCCC=CCCCCN(CC(O)C(Cc1ccccc1)NC(=O)OC1COC3OCCC13)S2(=O)=O (centres unmarked) [Compound 14b] was run?
Its value is 37 passages.

And the Ki (HIV-1 protease)?
The Ki was < 0.0007 µM.

And the Ki (HIV-1 protease; Table 2)?
Its Ki is < 0.001 µM.

Which CC50 (MT-2 cells) does the source give for CCC[C@@]1(CCc2ccccc2)CC(O)=C([C@H](CC)c2cccc(NS(=O)(=O)c3ccc(C(F)(F)F)cn3)c2)C(=O)O1 [TPV, Tipranavir] here?
The CC50 was 54.1 ± 2.1 µM.

For CC(C)CN(C[C@@H](O)[C@H](Cc1ccccc1)NC(=O)O[C@H]1CCOC1)S(=O)(=O)c1ccc(N)cc1 [APV, Amprenavir], which “passage by which HIV-1 variants replicating in the presence of 1 μM drug emerged” value (HIV-1NL4-3) is on record?
The value was 20 passages.
